Measured values taken from patent publication US20230114153A1, “IMIDAZOLYL THIOPEHENE SULFONYL CARBAMATES FOR USE IN THE TREATMENT OF DISEASES ASSOCIATED WITH ANGIOTENSIN II” (Vicore Pharma AB, priority 2020, published 2023).

Assays:
CYP2B6 = molecular target: T1, CYP2B6 (Homo sapiens, UniProt P20813); assay: CYP inhibition in human liver microsomes, CYP2B6; assay type: in vitro ADME; settings: probe bupropion, substrate bupropion, read-out: CYP2B6 Inh %
T1 construct: incubated with human liver microsomes; tissue Eurofins (contract protocol) ITEMG232; host or cells: human liver microsomes
T1 sequence (P20813 1-491): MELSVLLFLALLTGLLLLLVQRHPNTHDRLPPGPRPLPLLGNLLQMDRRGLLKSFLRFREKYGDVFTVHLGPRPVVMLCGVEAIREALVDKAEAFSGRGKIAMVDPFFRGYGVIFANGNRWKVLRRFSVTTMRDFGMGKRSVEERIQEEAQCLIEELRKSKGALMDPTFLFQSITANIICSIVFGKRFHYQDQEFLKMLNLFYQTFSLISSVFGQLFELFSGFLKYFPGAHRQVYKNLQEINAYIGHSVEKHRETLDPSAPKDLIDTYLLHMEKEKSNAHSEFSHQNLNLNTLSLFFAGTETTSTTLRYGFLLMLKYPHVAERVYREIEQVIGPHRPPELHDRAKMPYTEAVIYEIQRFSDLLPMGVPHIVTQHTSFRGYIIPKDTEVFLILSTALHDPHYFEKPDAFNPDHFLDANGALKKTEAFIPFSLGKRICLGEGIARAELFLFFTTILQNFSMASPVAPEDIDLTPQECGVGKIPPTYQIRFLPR
Experimental: (§1) The following substrates were used; CYP1A phenacetin, CYP2B6 bupropion, CYP2C8 paclitaxel and amodiaquine, CYP2C9 diclofenac, CYP2C19 omeprazole, CYP2D6 dextromethorphan, CYP3A midazolam and testosterone. At the end of the incubation, the formation of metabolite was monitored by HPLC-MS/MS as the peak area response.

CYP2C9 = molecular target: T2, CYP2C9 (Homo sapiens, UniProt P11712); assay: CYP inhibition in human liver microsomes, CYP2C9; assay type: in vitro ADME; settings: probe diclofenac, substrate diclofenac, read-out: CYP2C9 Inh %
T2 construct: incubated with human liver microsomes; tissue Eurofins (contract protocol) ITEMG232; host or cells: human liver microsomes
T2 sequence (P11712 whole entry): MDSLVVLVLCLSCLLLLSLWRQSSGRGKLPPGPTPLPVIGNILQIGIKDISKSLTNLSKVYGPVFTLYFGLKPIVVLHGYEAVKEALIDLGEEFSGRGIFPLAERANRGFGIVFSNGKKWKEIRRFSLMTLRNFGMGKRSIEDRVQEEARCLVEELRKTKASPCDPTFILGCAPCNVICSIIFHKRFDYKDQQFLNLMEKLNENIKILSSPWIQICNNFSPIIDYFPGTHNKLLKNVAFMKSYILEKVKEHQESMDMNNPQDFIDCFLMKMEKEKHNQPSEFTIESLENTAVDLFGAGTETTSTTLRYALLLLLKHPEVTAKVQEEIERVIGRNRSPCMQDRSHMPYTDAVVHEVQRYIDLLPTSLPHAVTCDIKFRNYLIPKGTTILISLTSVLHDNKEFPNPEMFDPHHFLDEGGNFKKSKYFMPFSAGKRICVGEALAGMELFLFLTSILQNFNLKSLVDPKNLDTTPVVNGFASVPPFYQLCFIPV
Experimental: as §1

CYP3A4 = molecular target: T3, CYP3A4 (Homo sapiens, UniProt P08684); assay: CYP inhibition in human liver microsomes, CYP3A4 (midazolam); assay type: in vitro ADME; settings: probe midazolam, substrate midazolam, read-out: CYP3A4 midazolam Inh %
T3 construct: incubated with human liver microsomes; tissue Eurofins (contract protocol) ITEMG232; host or cells: human liver microsomes
T3 sequence (P08684 whole entry): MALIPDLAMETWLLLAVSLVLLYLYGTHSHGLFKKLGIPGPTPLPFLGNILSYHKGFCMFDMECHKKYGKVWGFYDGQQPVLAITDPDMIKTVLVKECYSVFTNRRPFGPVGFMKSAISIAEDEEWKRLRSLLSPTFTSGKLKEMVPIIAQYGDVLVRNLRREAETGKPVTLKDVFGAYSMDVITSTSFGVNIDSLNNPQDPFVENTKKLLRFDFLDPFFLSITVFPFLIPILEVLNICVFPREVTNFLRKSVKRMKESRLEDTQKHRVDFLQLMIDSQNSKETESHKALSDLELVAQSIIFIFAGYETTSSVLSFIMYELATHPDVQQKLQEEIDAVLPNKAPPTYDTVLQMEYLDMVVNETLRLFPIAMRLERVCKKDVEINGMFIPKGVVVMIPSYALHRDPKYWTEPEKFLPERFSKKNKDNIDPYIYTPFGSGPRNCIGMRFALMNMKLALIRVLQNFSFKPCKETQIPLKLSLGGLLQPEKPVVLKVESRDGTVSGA
Experimental: as §1

CYP2C19 = molecular target: T4, CYP2C19 (Homo sapiens, UniProt P33261); assay: CYP inhibition in human liver microsomes, CYP2C19; assay type: in vitro ADME; settings: probe omeprazole, substrate omeprazole, read-out: CYP2C19 Inh %
T4 construct: incubated with human liver microsomes; tissue Eurofins (contract protocol) ITEMG232; host or cells: human liver microsomes
T4 sequence (P33261 whole entry): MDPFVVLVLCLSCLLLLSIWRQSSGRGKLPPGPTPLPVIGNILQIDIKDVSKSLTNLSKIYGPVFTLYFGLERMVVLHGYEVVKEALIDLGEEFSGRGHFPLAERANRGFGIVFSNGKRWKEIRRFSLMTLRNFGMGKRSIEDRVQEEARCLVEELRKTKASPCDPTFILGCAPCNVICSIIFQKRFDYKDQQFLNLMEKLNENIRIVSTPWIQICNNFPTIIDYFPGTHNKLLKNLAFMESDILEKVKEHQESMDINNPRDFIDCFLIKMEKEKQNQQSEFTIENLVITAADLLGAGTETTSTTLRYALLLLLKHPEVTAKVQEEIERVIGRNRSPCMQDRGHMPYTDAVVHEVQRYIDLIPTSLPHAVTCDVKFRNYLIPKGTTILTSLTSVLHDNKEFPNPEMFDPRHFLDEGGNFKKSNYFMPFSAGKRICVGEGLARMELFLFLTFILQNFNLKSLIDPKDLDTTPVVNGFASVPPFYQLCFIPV
Experimental: as §1

CYP1A = molecular target: T5, CYP1A (Homo sapiens, UniProt P05177); assay: CYP inhibition in human liver microsomes, CYP1A; assay type: in vitro ADME; settings: probe phenacetin, substrate phenacetin, read-out: CYP1A Inh %
T5 construct: incubated with human liver microsomes; tissue Eurofins (contract protocol) ITEMG232; host or cells: human liver microsomes
T5 sequence (P05177 1-516): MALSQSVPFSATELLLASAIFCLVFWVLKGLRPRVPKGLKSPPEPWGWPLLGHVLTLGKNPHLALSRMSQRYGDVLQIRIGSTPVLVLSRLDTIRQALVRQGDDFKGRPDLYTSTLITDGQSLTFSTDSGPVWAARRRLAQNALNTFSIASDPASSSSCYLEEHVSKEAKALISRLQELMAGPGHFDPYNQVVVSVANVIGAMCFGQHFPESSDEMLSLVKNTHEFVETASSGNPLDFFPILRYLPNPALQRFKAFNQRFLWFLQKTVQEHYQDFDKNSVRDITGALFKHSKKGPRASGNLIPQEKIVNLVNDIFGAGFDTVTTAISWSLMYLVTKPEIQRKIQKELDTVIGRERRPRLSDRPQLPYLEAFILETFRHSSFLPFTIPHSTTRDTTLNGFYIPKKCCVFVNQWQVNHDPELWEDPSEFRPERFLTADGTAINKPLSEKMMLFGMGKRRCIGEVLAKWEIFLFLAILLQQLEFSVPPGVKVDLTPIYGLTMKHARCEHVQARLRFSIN
Experimental: as §1

[1] = molecular target: T6, human recombinant AT2 receptor (Homo sapiens, UniProt P50052); assay: Binding to human recombinant AT2 receptor, radiometric scintillation assay (Eurofins ITEM26); settings: ligand 125I CGP 42112A, 2-4 h at 37° C., tested at 1, 10, 100 and 1000 nM
T6 construct: Eurofins (contract protocol) ITEM26
T6 sequence (P50052 1-363): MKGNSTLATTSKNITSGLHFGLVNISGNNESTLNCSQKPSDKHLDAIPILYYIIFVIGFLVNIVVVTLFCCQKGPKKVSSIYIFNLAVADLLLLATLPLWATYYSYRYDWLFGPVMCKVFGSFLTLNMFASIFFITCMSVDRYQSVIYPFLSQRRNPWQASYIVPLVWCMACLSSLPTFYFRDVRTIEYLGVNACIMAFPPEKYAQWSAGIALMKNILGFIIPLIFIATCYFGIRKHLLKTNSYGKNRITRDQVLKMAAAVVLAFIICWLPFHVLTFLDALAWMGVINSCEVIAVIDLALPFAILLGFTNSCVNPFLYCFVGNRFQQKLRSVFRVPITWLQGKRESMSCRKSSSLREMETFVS

CYP2D6 = molecular target: T7, CYP2D6 (Homo sapiens, UniProt P10635); assay: CYP inhibition in human liver microsomes, CYP2D6; assay type: in vitro ADME; settings: probe dextromethorphan, substrate dextromethorphan, read-out: CYP2D6 Inh %
T7 construct: incubated with human liver microsomes; tissue Eurofins (contract protocol) ITEMG232; host or cells: human liver microsomes
T7 sequence (P10635 whole entry): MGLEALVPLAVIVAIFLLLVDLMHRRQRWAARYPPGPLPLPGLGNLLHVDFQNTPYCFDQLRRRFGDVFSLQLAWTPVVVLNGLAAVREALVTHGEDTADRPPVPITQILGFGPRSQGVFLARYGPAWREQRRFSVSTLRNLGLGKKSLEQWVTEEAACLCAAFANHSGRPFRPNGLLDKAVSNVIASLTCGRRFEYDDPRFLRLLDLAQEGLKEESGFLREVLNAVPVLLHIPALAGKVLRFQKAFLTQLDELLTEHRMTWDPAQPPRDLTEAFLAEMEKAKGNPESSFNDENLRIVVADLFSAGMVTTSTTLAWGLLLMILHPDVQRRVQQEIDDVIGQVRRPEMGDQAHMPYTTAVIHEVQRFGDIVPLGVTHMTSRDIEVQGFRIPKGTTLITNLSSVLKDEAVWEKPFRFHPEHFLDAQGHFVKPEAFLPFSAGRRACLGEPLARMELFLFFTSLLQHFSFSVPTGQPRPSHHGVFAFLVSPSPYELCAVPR
Experimental: as §1

CYP2C8 = molecular target: T8, CYP2C8 (Homo sapiens, UniProt P10632); assay: CYP inhibition in human liver microsomes, CYP2C8; assay type: in vitro ADME; settings: probe paclitaxel and amodiaquine, substrates paclitaxel and amodiaquine, read-out: CYP2C8 Inh %
T8 construct: incubated with human liver microsomes; tissue Eurofins (contract protocol) ITEMG232; host or cells: human liver microsomes
T8 sequence (P10632 1-490): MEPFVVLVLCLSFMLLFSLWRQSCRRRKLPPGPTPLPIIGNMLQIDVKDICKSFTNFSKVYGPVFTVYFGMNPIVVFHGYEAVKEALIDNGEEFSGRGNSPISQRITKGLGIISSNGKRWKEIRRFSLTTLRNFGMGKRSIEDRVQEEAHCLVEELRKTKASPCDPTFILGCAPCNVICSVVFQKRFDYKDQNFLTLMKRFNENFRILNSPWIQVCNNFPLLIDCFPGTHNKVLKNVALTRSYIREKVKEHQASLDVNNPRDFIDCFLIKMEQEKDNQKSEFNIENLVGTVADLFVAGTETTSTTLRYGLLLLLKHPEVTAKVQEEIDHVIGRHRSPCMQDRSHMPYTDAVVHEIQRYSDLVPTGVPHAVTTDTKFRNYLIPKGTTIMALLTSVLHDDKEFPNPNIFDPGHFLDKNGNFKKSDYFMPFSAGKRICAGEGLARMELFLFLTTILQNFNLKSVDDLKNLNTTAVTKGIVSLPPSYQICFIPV
Experimental: as §1

CYP3A4&5 = assay: CYP inhibition in human liver microsomes, CYP3A4&5 (testosterone); assay type: in vitro ADME; settings: probe testosterone, substrate testosterone, read-out: CYP3A4&5 testosterone Inh %
Experimental: as §1

SMILES | inhibition at 10 µM (CYP2B6) [%] | inhibition at 10 µM (CYP2C9) [%] | inhibition at 10 µM (CYP3A4) [%] | inhibition at 10 µM (CYP2C19) [%] | inhibition at 10 µM (CYP1A) [%] | IC50 [1] [nM] | inhibition at 10 µM (CYP2D6) [%] | inhibition at 10 µM (CYP2C8) [%] | inhibition at 10 µM (CYP3A4&5) [%]
CCCCOC(=O)NS(=O)(=O)c1sc(CC(C)C)cc1-c1ccc(Cn2ccnc2C)cc1 [Example 1, Butyl (5-isobutyl-3-(4-((2-methyl-1H-imidazol-1-yl)methyl)phenyl)thiophen-2-yl)sulfonyl-carbamate] | 17.6 | 58.9 | ~0 | 43 | 2.5 | 0.53 | 22.4 | 37.5 | 13.5
CCCCOC(=O)NS(=O)(=O)c1sc(CC(C)C)cc1-c1ccc(Cn2ccnc2)cc1 [Example C21, N-butyloxycarbonyl-3-(4-imidazol-1-ylmethylphenyl)-5-isobutylthiophene-2-sulfon-amide, reference compound] | 48.8 |  | 95.2 |  | 90.9 |  | 81.2 | 80.4 | 94.2
